≈ marks a conversion by molar mass, not a printed value.
What was measured:
[1] = Color stability at extinction maximum; assay type: physicochemical; conditions: 0.2 mM chromogen; 4 hours the longest period observed
[2] = Solubility of the chromogens in water / at pH 7, reduced and oxidized state; conditions: for solubility: pH 7, water
[3] = Absorption wave length of the oxidized chromogen; assay type: physicochemical
[4] = Light stability: extinction decrease after irradiation of the oxidized chromogen; assay type: physicochemical
Procedure: In connection with this composition portion of the invention, laboratory tests were conducted by a standard method for evaluating different chromogens.

[5] = Color development of chromogen-reactive-indicator composition with glucose stock solutions (glucose oxidase/peroxidase); conditions: 0.2 mM chromogen in reagent composition
Procedure: Glucose was used as the control or test substance to be tested for in these tests.
______________________________________
Chromogen used 0.2 mM (i.e. millimolar),
glucose oxidase 3000 units,
Stock or test solutions were prepared containing glucose in concentrations of 25, 50, 100, 200, 300, and 400 mg. per 100 ml.
Before the final determination, this thus diluted solution is diluted further 1 part to 11 with the just described chromogen reagent solution. Thereafter the development of color is measured at 450 mm.
When this particular dilution pattern is applied to the foregoing stock or test stem solutions, finally diluted solutions with the following respective glucose contents are obtained: 2.2, 4.3, 8.6, 13.0, and 17.3 mg. per liter.

[6] = Stability of isolated product in air; assay type: physicochemical; conditions: greyish crystal powder
Procedure: d. 10 gm. of this 8,8'-bis(2-oxo-1,2,3,4,5,6-hexahydro-1-benzazocine) are refluxed for 12 hours with 200 ml. of concentrated hydrochloric acid. The solution is evaporated to a small volume, diluted with water, following which the pH is adjusted to 5 to 6 by adding concentrated sodium acetate solution.

[7] = background, cited from earlier work
[8] = background, cited from earlier work; remark: listed apart in the source
[9] = Solubility at pH 7, oxidized (colored), pH 7, oxidized state
[10] = Solubility at pH 7, reduced (uncolored), pH 7, reduced state
[11] = 450 nm (o-tolidine 430 nm), pH value 6.5

Color stability at extinction maximum, optional reading time [1]	Solubility in water (in words) [2]	Precipitation of chromogen [5]	Discoloration in the air [6]	Compound	solubility [2, 9] [µg/mL]	solubility [2, 10] [µg/mL]	Wave length range in nm ([3]; pH value 6.5) [nm]	Extinction decrease % after irradiation 5 min. under 10 Watt tungsten lamp [4, 11] [%]	Light absorption wave length in oxidized state [7]	Decline of extinction when exposed to light ([8]; oxidized, exposed to light)	Sensitivity of color to light ([8]; oxidized)	Absorption of temporarily appearing color ([7]; temporarily appearing color)	Wave length range in nm ([3]; pH value 4.5) [nm]	Extinction decrease % after irradiation 5 min. under 10 Watt tungsten lamp ([4]; 630 nm, pH value 4.5)	Sensitivity of color to pH and temperature ([8]; temporarily appearing color at about 630 nm)
up to 4 hours	very good	no precipitation of chromogen occurred	–	Cl.Cl.Nc1ccc(-c2ccc(N)c(OCCCC(=O)O)c2)cc1OCCCC(=O)O [Example 1(d), Gamma, gamma'-(4,4'-diamino-3,3'-biphenyldioxy)dibutyric acid dihydrochloride]	700	70000	450	2	–	–	–	–	–	–	–
up to 4 hours	quite good	no precipitation of it occurs	–	Nc1ccc(-c2ccc(N)c(OCCCS(=O)(=O)O)c2)cc1OCCCS(=O)(=O)O [Example 3(b), Gamma,gamma'-(4,4'-diamino-3,3'-biphenyldioxy)dipropane sulfonic acid]	120 (≈ 261 µM)	12000 (≈ 26100 µM)	450	2	–	–	–	–	–	–	–
–	–	–	readily discolors in the air	Nc1ccc(-c2ccc(N)c(CCCCC(=O)O)c2)cc1CCCCC(=O)O [Example 6, Delta,delta'-(4,4'-diamino-3,3'-biphenyl)divaleric acid]	–	–	–	–	–	–	–	–	–	–	–

Further lines, the molecule ahead of its results:

Compound	Color stability at extinction maximum, optional reading time [1]	Solubility in water (in words) [2]	Precipitation of chromogen [5]	Discoloration in the air [6]	solubility [2, 9] [µg/mL]	solubility [2, 10] [µg/mL]	Wave length range in nm ([3]; pH value 6.5) [nm]	Extinction decrease % after irradiation 5 min. under 10 Watt tungsten lamp [4, 11] [%]	Light absorption wave length in oxidized state [7]	Decline of extinction when exposed to light ([8]; oxidized, exposed to light)	Sensitivity of color to light ([8]; oxidized)	Absorption of temporarily appearing color ([7]; temporarily appearing color)	Wave length range in nm ([3]; pH value 4.5) [nm]	Extinction decrease % after irradiation 5 min. under 10 Watt tungsten lamp ([4]; 630 nm, pH value 4.5)	Sensitivity of color to pH and temperature ([8]; temporarily appearing color at about 630 nm)
COc1cc(-c2ccc(N)c(OC)c2)ccc1N [o-dianisidine]	–	–	–	–	10 (≈ 40.9 µM)	110 (≈ 450 µM)	450	26	about 450 nm	up to 25 per cent	sensitive to light	–	–	–	–
Cc1cc(-c2ccc(N)c(C)c2)ccc1N [o-tolidine]	–	–	–	–	7 (≈ 33 µM)	130 (≈ 612 µM)	430	1	about 450 nm	–	–	about 630 nm	630	unstable	very sensitive to variations in pH and temperature
